Entries after “also recorded” stand apart in the source; their conditions may differ.
How the values were obtained:
Format in all cases: physicochemical
[1] = Solubility of the API in aqueous media
Description: A different aqueous media may be selected if required for stability reasons of the API; e.g., decompensation of the at pH 6.8 or change of the polymorph of the API, e.g. salt formation of a base under low pH conditions and vis versa base formation of API with a strong acid at higher pH values. Preferably, aqueous conditions are selected to maintain an unchanged API polymorph. The amount dissolved is determined either by measuring the concentration at the defined time points and the amount dissolved is plotted versus time. The amount at each time point is determined by a suitable assay method, e.g., UV for API with sufficient extinction coefficient or HPLC with low extinction coefficient.

[2] = Solubility of Cannabidiol in USP dissolution apparatus before and after adding HP-β-Cyclodextrin (experiment 12)
Description: FIGS. 5A and 5B refer to a method to determine the solubility of low soluble API and determination of the solubility enhancing effect of an API: Cyclodextrin complex. Accurately weighted amounts of the low soluble API, higher than its intrinsic solubility in the volume and pH of the aqueous media, is added to a defined volume into a vessel of the standard dissolution test apparatus 1 or 2 as defined in US Pharmacopeia (chapter <711> “Dissolution”) at pH conditions suitable for the API as explained above and at standard temperature conditions at the site of absorption e.g., 37° C. and paddle rotation of 50 rpm, with either water or standard aqueous media at pH 1, pH 2, water or buffer pH 6.8. It is to be assured by visual check that the API is not or not fully dissolved to ensure that the added amount is higher than the intrinsic solubility of the API. The dissolution of the API is checked for between 30 Min. and 3 hours, and the amount dissolved is measured with a suitable assay method like UV or HPLC and plotted against time. […]
An accurately weighted amount of Cannabidiol was dissolved in ethanol resulting in a solution containing 5 mg/ml. […] The amount of dissolved CBD was monitored. […]

[3] = Solubility of Ketoconazole in USP dissolution apparatus before and after adding HP-β-Cyclodextrin (experiment 13)
Description: FIGS. 5A and 5B refer to a method to determine the solubility of low soluble API and determination of the solubility enhancing effect of an API: Cyclodextrin complex. Accurately weighted amounts of the low soluble API, higher than its intrinsic solubility in the volume and pH of the aqueous media, is added to a defined volume into a vessel of the standard dissolution test apparatus 1 or 2 as defined in US Pharmacopeia (chapter <711> “Dissolution”) at pH conditions suitable for the API as explained above and at standard temperature conditions at the site of absorption e.g., 37° C. and paddle rotation of 50 rpm, with either water or standard aqueous media at pH 1, pH 2, water or buffer pH 6.8. It is to be assured by visual check that the API is not or not fully dissolved to ensure that the added amount is higher than the intrinsic solubility of the API. The dissolution of the API is checked for between 30 Min. and 3 hours, and the amount dissolved is measured with a suitable assay method like UV or HPLC and plotted against time. After the initial phase at least a 100-time overage of the desired complex forming Cyclodextrin, in a suitable complex forming ratio with the API, is added to the dissolution vessel and the dissolution determination is continued for up to 24 hours until the amount of dissolved API reaches a plateau. […]

solubility in aqueous media (words) ([1]; pH 2) | solubility of Ketoconazole after overage of HP-β-Cyclodextrin ([3]; 500 ml aqueous media pH 6.8) | solubility of Ketoconazole before Cyclodextrin addition ([3]; 500 ml aqueous media pH 6.8, added as powder) | SMILES | solubility in aqueous media (words) ([1]; any pH or pH not given) | solubility in aqueous media (words) ([1]; any pH or pH not given, listed as Cannabidiol) | solubility of CBD after overage of HP-β-Cyclodextrin ([2]; 500 ml aqueous media pH 2) | solubility of CBD before Cyclodextrin addition ([2]; 500 ml aqueous media pH 2, added as solution in ethanol) | solubility in aqueous media (words) ([1]; pH 6.8)
– | – | – | C=C(C)[C@@H]1CCC(C)=C[C@H]1c1c(O)cc(CCCCC)cc1O [CBD, Cannabidiol] | very insoluble | insoluble | significantly increased | almost insoluble | –
low soluble | significantly increased | visibly insoluble | CC(=O)N1CCN(c2ccc(OCC3COC(Cn4ccnc4)(c4ccc(Cl)cc4Cl)O3)cc2)CC1 (centres unmarked) [Ketoconazole] | – | – | – | – | very insoluble; also recorded: less soluble; also recorded: very low soluble

— patent US20240350642A1, “SUSTAINED RELEASE DOSAGE FORMS FOR LOW SOLUBILITY COMPOUNDS AND METHODS FOR PREPARING OF THESE SUSTAINED RELEASE DOSAGE FORMS” (priority 2023, published 2024)
